From US8796224B2, “Methods for preparing purified lipopeptides” (priority 2000, dated 2014) come the findings set out here.

The nature of series [1]: Hygroscopicity of the amorphous preparation. It counts as physicochemical. The settings on record: amorphous daptomycin preparation.
The next series deals with susceptible strains. The experiment in a line: Minimum inhibitory concentration (MIC) in in vitro experiments. It counts as cell-based, gram-positive organisms. To be noted: against susceptible strains, compared with vancomycin, 'typically'.

Molecules are shown by their SMILES. Values after ≈ are worked out from the molar mass of the structure shown.

The term solubility denotes the concentration that dissolves in the medium under given conditions.

For `CCCCCCCCCCC(=O)NC(Cc1c[nH]c2ccccc12)C(=O)NC(CC(N)=O)C(=O)NC(CC(=O)O)C(=O)NC1C(=O)NCC(=O)NC(CCCN)C(=O)NC(CC(=O)O)C(=O)NC(C)C(=O)NC(CC(=O)O)C(=O)NCC(=O)NC(CO)C(=O)NC(C(C)CC(=O)O)C(=O)NC(CC(=O)c2ccccc2N)C(=O)OC1C` (centres unmarked) [CB-131547], the solubility in the series “physchem” (solubility in normal saline) is about 80 mg/mL (≈ 48.9 mM).

As for `CCCCCCCCCC(=O)N[C@@H](Cc1c[nH]c2ccccc12)C(=O)N[C@H](CC(N)=O)C(=O)N[C@@H](CC(=O)O)C(=O)N[C@@H]1C(=O)NCC(=O)N[C@@H](CCCN)C(=O)N[C@@H](CC(=O)O)C(=O)N[C@H](C)C(=O)N[C@@H](CC(=O)O)C(=O)NCC(=O)N[C@H](CO)C(=O)N[C@@H]([C@H](C)CC(=O)O)C(=O)N[C@@H](CC(=O)c2ccccc2N)C(=O)O[C@@H]1C` [daptomycin], the hygroscopicity entry in series [1] is “hygroscopic”. In addition, the solubility in “physchem” (solubility in ethanol) was 2.8 mg/mL (≈ 1.73 mM); in “physchem” (solubility in water) it was over 1000 mg/mL. The “MIC value, fold lower than that of vancomycin” value with susceptible strains was determined as 4 fold.
